According to patent US20260041679A1, “METHOD OF TREATING HYPERTENSION WITH THE ALDOSTERONE SYNTHASE INHIBITOR BAXDROSTAT” (CINCOR PHARMA, INC., priority 2022, published 2026):

Key:
Assay type in all cases: in vivo, human
[1] = Absorption, metabolism and excretion of [14C]-baxdrostat (Example 7)
Protocol: Eight male subjects each received a single oral 10 mg (containing approximately 100 uCi) dose of baxdrostat. Blood, urine and fecal samples were collected to determine the metabolic and excretion pathways of baxdrostat. Preliminary findings indicate that the mean excretion of radioactivity was 69.4% and 15.3%, of the dose in the urine and feces, respectively. Unchanged baxdrostat was the major component in urine and feces, constituting 16.8% and 6.1% of the dose, respectively.

[2] = Safety in hepatic function study (Example 5)
Protocol: Subjects with moderate hepatic impairment (Child-Pugh Category B, n=10) and healthy controls (n=10) were each given a single 10 mg oral dose of baxdrostat. Subjects were matched by age, sex, body mass index, race, and smoking status. Serial blood and urine samples were collected to determine plasma and urine concentrations of baxdrostat for 7 days postdose. Safety was assessed based on adverse events, clinical laboratory evaluations, vital signs, electrocardiogram and physical examinations.

[3] = Multiple ascending dose study, pharmacokinetics (Example 2)
Protocol: This randomized, double-blind, placebo-controlled phase 1 study evaluated the safety, pharmacokinetics, and pharmacodynamics of multiple ascending doses of baxdrostat in healthy volunteers. Fifty-six subjects were randomized to receive oral baxdrostat (0.5, 1.5, 2.5, or 5.0 mg) or placebo once daily for ten days and were placed on either a low salt or normal salt diet for the duration of the study. In particular, subjects were randomized into 5 cohorts to receive baxdrostat or placebo once daily for 10 days. Cohorts 1 and 2 were placed on a low salt diet to stimulate aldosterone production and were administered 2.5 or 5.0 mg oral baxdrostat, respectively. Cohorts 1 and 2 also underwent an adrenocorticotropic hormone (ACTH) challenge to increase aldosterone and cortisol levels to evaluate the specificity of baxdrostat for targeting aldosterone synthase. Cohorts 3, 4, and 5 were placed on a normal salt diet and were administered 1.5, 2.5, or 0.5 mg oral baxdrostat, respectively. Blood samples were collected prior to and after dosing on days 1 and 10 for measurement of plasma baxdrostat concentrations to characterize single-dose and steady-state pharmacokinetics. Pharmacodynamic measurements included plasma aldosterone, cortisol, and electrolytes. Safety assessments included physical examination, electrocardiograms, orthostatic vital signs, and clinical laboratory evaluations.

[4] = Safety in subjects with varying degrees of renal function (Example 4)
Protocol: Safety was assessed throughout the study based on adverse events, physical examinations, ECG, seated and orthostatic vital signs, weight measurements, and clinical laboratory evaluations

[5] = single oral 10 mg [14C] dose, preliminary findings
[6] = control eGFR ≥60 mL/min (n = 10)
[7] = moderate to severe renal impairment (n = 11)
[8] = single 10 mg, all renal function groups

Compound: CCC(=O)N[C@@H]1CCCc2c(-c3ccc4c(c3)CCC(=O)N4C)cncc21 [baxdrostat, (R)—N-(4-(1-methyl-2-oxo-1,2,3,4-tetrahydroquinolin-6-yl)-5,6,7,8-tetrahydroisoquinolin-8-yl) propionamide]
- mean blood:plasma concentration ratios ([1]; radioactivity): low association of radioactivity with blood cells
- share of total systemic exposure by AUC0-inf in plasma ([1]; single oral 10 mg [14C] dose): 71%
- unchanged baxdrostat in feces ([1]; single oral 10 mg [14C] dose): 6.1 % of the dose
- unchanged baxdrostat in urine ([1]; single oral 10 mg [14C] dose): 16.8 % of the dose
- mean excretion of radioactivity in feces [1, 5]: 15.3 % of the dose
- mean excretion of radioactivity in urine [1, 5]: 69.4 % of the dose
- clinical laboratory evaluations, vital signs, electrocardiograms, physical examinations ([2]; both groups): No clinically significant changes
- TEAE deemed related to baxdrostat ([2]; normal hepatic function group): One TEAE of headache with moderate severity
- deaths, serious TEAEs, study discontinuations ([2]; single 10 mg, both hepatic function groups): no deaths, serious treatment-emergent adverse events (TEAE), or study discontinuations
- plasma levels of baxdrostat vs dose ([3]; 0.5 to 5.0 mg once daily): increased proportionally with ascending doses
- time of peak concentrations after dosing ([3]; 0.5 to 5.0 mg once daily): ≤ 4 h
- half-life ([3]; human, plasma, oral, 0.5 to 5.0 mg once daily): 26 to 31 h
- absorption ([3]; oral, healthy subjects): rapidly absorbed
- Diarrhea, n (%) ([4]; Total (n = 33)): 1 (3.0) n (%)
- Metabolic encephalopathy, n (%) ([4]; Total (n = 33)): 1 (3.0) n (%)
- Subjects with any TEAEs, n (%) ([4]; Total (n = 33)): 2 (6.1) n (%)
- Tremor, n (%) ([4]; Total (n = 33)): 1 (3.0) n (%)
- Diarrhea, n (%) [4, 6]: 1 (10.0) n (%)
- Metabolic encephalopathy, n (%) [4, 6]: 0 (0.0) n (%)
- Subjects with any TEAEs, n (%) [4, 6]: 1 (10.0) n (%)
- Tremor, n (%) [4, 6]: 0 (0.0) n (%)
- Diarrhea, n (%) ([4]; kidney failure (n = 12)): 0 (0.0) n (%)
- Subjects with any TEAEs, n (%) ([4]; kidney failure (n = 12)): 1 (8.3) n (%)
- Metabolic encephalopathy, n (%) ([4]; kidney failure (n = 12), considered severe and unrelated to the study drug): 1 (8.3) n (%)
- Tremor, n (%) ([4]; kidney failure (n = 12), unrelated to the study drug): 1 (8.3) n (%)
- Diarrhea, n (%) [4, 7]: 0 (0.0) n (%)
- Metabolic encephalopathy, n (%) [4, 7]: 0 (0.0) n (%)
- Subjects with any TEAEs, n (%) [4, 7]: 0 (0.0) n (%)
- Tremor, n (%) [4, 7]: 0 (0.0) n (%)
- deaths and drug-related treatment-emergent adverse events [4, 8]: no deaths and only one mild drug-related treatment-emergent adverse event (diarrhea)
- laboratory values, vital signs, physical examinations, ECGs [4, 8]: no clinically meaningful changes
